Measurements as given in ChEMBL document CHEMBL5356958, “Discovery of a Highly Potent and Selective MYOF Inhibitor with Improved Water Solubility for the Treatment of Gastric Cancer” (J Med Chem, 2023).
Converted amounts (≈) assume the structure as drawn. The source made the active and inactive calls. No cut-off for these calls is given here.

How the values were obtained:
MKN-45 [1] = experiment: Antitumor activity against human MKN-45 cells xenografted in BALB/c mouse assessed as tumor growth inhibition at 15 mg/kg/day, ip measured every 3 days for 21 days; assay type: functional; details: MKN-45, 504 h, time 21 day, read-out: TGI
BGC-823 = experiment: Antiproliferative activity against human BGC-823 cells incubated for 48 hrs by SRB assay; assay type: functional, cell-based; details: BGC-823, 48 h
[2] = Cmax in ICR mouse at 1 mg/kg, iv; assay type: ADME, organism-based; parameters: dose 1 mg/kg, route iv; details: in vivo
hERG (KCNH2) = hERG (KCNH2) (Homo sapiens, UniProt Q12809); experiment: Inhibition of human ERG at 40 uM relative to control; assay type: toxicity
AGS = experiment: Antiproliferative activity against human AGS cells incubated for 48 hrs by SRB assay; assay type: functional, cell-based
MKN-45 [3] = experiment: Induction of apoptosis in human MKN-45 cells assessed as early apoptotic cells at 400 nM incubated for 48 hrs by Annexin V-FITC/PI staining based flow cytometry analysis (reference value: 0.5%); assay type: functional
[4] = Antiproliferative activity against HAF cells incubated for 48 hrs by SRB assay; assay type: functional, cell-based; details: Homo sapiens
MKN-45 [5] = experiment: Inhibition of epithelial mesenchymal transition in human MKN-45 cells assessed as upregulation in E-cadherin level by Western blotting analysis; assay type: functional, cell-based; details: dose 100-400 nM
Cytochrome P450 3A4 = Cytochrome P450 3A4 (Homo sapiens, UniProt P08684); experiment: Inhibition of CYP3A4 in human liver microsomes; assay type: ADME, Microsome
Chain of Cytochrome P450 3A4 (P08684 whole entry): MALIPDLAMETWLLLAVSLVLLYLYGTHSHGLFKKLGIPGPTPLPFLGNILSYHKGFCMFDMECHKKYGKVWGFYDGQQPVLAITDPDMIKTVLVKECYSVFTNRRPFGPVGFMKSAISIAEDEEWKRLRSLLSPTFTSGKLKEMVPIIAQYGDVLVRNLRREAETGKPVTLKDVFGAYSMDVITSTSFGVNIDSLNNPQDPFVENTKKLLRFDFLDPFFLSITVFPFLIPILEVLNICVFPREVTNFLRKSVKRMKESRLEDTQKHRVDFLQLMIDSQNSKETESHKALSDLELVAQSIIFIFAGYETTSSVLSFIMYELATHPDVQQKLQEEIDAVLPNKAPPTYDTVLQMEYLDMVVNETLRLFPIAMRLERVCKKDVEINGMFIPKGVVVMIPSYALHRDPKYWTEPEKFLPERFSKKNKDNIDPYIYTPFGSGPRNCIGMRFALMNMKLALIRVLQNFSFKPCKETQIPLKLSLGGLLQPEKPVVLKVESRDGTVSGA

DU-145 = experiment: Antiproliferative activity against human DU-145 cells incubated for 48 hrs by SRB assay; assay type: functional, cell-based; details: DU-145, 48 h
BXPC-3 = experiment: Antiproliferative activity against human BXPC-3 cells incubated for 48 hrs by SRB assay; assay type: functional, cell-based; details: BXPC-3, 48 h
[6] = Aqueous solubility of compound in PBS at pH 2; assay type: physicochemical
[7] = Toxicity in BALB/c mouse assessed as change in body weight at 15 to 30 mg/kg, ip measured every 3 days for 21 days; assay type: organism-based; details: in vivo, 504 h, dose 15-30 mg/kg, time 21 day
MKN-45 [8] = experiment: Induction of apoptosis in human MKN-45 cells assessed as early apoptotic cells at 800 nM incubated for 48 hrs by Annexin V-FITC/PI staining based flow cytometry analysis (reference value: 0.5%); assay type: functional
[9] = Aqueous solubility of compound in PBS at pH 9; assay type: physicochemical
[10] = Aqueous solubility of compound in PBS at pH 7.4; assay type: physicochemical
Myoferlin [11] = biological target: T1, Myoferlin (Homo sapiens, UniProt Q9NZM1); experiment: Binding affinity to MYOF in human MKN45 cells at 50 to 100 uM incubated for 1 hr by CETSA; assay type: cell-based; details: MKN-45, dose 50-100 µM
T1 sequence (Q9NZM1 whole entry): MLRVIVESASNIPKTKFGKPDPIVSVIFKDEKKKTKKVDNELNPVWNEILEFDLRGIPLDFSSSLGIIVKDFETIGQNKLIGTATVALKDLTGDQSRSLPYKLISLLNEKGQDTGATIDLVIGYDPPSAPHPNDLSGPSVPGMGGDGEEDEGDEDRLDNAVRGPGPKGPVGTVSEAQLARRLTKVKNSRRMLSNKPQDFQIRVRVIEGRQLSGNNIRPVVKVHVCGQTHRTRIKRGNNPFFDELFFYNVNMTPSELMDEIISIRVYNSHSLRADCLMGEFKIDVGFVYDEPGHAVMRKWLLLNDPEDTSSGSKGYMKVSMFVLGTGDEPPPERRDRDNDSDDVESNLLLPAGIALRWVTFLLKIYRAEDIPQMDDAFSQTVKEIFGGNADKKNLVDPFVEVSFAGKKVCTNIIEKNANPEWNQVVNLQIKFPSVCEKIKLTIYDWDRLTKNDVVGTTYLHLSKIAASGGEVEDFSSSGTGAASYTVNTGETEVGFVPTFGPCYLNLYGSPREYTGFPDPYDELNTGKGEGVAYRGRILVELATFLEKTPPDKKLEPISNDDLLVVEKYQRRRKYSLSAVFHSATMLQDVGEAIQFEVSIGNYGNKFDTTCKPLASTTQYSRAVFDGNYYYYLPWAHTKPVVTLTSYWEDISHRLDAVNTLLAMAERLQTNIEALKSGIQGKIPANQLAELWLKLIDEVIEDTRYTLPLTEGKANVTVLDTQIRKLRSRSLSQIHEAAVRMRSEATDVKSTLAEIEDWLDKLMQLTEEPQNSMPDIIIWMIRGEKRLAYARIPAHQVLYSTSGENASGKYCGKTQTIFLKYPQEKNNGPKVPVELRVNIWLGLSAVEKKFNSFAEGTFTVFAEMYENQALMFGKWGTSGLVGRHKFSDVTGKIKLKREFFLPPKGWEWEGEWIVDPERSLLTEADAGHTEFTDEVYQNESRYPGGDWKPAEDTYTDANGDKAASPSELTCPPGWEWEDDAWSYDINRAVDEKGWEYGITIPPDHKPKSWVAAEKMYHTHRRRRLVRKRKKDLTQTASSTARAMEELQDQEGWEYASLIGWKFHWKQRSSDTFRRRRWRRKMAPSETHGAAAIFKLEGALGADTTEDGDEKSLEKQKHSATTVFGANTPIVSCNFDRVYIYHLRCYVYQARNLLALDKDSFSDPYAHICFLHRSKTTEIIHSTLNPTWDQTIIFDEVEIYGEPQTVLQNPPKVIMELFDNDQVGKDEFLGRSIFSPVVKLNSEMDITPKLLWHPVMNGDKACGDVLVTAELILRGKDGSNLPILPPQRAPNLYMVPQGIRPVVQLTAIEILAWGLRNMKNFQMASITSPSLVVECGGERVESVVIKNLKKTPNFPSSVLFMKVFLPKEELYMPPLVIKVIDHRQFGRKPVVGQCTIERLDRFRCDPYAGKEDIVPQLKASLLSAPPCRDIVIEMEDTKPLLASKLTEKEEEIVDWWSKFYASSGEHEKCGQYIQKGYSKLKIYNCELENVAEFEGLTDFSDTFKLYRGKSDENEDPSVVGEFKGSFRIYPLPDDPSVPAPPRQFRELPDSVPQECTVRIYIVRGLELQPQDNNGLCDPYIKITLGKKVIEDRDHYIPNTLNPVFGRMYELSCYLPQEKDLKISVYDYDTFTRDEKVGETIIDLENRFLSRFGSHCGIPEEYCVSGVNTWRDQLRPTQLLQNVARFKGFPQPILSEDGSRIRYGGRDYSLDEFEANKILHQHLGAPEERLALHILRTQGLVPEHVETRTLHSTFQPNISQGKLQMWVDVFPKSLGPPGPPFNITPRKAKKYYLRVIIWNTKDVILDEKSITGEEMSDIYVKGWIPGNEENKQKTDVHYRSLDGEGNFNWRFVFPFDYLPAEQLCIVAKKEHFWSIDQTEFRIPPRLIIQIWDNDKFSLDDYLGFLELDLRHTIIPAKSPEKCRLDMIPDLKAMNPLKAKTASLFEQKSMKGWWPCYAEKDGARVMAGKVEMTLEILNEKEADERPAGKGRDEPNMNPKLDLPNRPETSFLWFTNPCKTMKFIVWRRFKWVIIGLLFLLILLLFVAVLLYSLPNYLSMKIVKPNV

[12] = Half life in ICR mouse at 1 mg/kg, iv; assay type: ADME, organism-based; details: in vivo
Cytochrome P450 2D6 = Cytochrome P450 2D6 (Homo sapiens, UniProt P10635); experiment: Inhibition of CYP2D6 in human liver microsomes; assay type: ADME, Microsome
Chain of Cytochrome P450 2D6 (P10635 whole entry): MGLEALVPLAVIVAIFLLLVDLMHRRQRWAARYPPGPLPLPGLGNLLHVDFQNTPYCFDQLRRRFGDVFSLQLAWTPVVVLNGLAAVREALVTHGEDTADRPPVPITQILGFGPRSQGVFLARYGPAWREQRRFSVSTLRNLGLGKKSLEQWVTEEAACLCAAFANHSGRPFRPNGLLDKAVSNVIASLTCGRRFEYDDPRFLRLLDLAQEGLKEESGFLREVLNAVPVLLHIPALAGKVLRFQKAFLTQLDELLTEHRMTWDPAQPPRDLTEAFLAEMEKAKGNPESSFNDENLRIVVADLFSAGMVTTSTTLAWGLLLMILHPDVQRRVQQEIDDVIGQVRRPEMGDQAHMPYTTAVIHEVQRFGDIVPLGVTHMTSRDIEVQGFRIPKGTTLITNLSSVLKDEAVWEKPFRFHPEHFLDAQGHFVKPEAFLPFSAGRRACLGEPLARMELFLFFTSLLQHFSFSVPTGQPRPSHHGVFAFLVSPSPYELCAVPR

ES-2 = experiment: Antiproliferative activity against human ES2 cells incubated for 48 hrs by SRB assay; assay type: functional, cell-based; details: ES-2, 48 h
MKN-45 [13] = experiment: Induction of apoptosis in human MKN-45 cells assessed as late apoptotic cells at 200 nM incubated for 48 hrs by Annexin V-FITC/PI staining based flow cytometry analysis (reference value: 2.6%); assay type: functional
[14] = Clearance in ICR mouse at 1 mg/kg, iv; assay type: ADME, organism-based; details: in vivo
MFC = experiment: Antiproliferative activity against MFC cells incubated for 48 hrs by SRB assay; assay type: functional, cell-based; details: Mus musculus
MKN-45 [15] = experiment: Inhibition of epithelial mesenchymal transition in human MKN-45 cells assessed as downregulation in vimentin level by Western blotting analysis; assay type: functional, cell-based
[16] = Toxicity in BALB/c mouse assessed as change in liver morphology at 15 to 30 mg/kg, ip measured every 3 days for 21 days by HE staining based assay; assay type: organism-based; details: in vivo, 504 h, dose 15-30 mg/kg, time 21 day
[17] = biological target: Serine/threonine-protein kinase AKT (Homo sapiens) (UniProt P31751+Q9Y243+P31749); experiment: Inhibition of AKT phosphorylation in human MKN-45 cells by Western blot analysis; assay type: cell-based
Chain of Serine/threonine-protein kinase AKT (Homo sapiens) (P31749 whole entry, looked up): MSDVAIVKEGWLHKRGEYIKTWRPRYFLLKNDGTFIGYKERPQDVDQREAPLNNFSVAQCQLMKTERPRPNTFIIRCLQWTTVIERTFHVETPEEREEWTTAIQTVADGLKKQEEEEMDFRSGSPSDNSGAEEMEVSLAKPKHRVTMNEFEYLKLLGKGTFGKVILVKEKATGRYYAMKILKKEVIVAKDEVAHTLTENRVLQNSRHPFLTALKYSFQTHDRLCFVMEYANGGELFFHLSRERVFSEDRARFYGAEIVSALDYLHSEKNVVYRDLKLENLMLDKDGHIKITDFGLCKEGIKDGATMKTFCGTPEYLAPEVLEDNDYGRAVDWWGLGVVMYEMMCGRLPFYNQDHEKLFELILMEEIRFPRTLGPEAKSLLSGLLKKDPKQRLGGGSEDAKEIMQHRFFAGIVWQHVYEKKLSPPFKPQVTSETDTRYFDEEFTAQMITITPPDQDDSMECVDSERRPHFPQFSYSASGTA
Chain of Serine/threonine-protein kinase AKT (Homo sapiens) (P31751 whole entry, looked up): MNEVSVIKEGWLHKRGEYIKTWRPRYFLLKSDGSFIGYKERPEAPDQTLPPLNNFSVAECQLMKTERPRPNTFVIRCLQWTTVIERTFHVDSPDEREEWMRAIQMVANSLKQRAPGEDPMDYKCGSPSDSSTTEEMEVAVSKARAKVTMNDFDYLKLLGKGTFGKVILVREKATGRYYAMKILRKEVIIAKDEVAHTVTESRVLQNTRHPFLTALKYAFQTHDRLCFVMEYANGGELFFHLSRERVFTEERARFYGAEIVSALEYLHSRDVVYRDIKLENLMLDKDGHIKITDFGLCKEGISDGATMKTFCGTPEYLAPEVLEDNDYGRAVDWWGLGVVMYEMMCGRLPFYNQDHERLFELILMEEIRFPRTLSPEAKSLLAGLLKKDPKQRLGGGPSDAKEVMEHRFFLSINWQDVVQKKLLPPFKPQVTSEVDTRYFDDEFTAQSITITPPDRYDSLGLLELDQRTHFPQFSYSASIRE
Chain of Serine/threonine-protein kinase AKT (Homo sapiens) (Q9Y243 whole entry, looked up): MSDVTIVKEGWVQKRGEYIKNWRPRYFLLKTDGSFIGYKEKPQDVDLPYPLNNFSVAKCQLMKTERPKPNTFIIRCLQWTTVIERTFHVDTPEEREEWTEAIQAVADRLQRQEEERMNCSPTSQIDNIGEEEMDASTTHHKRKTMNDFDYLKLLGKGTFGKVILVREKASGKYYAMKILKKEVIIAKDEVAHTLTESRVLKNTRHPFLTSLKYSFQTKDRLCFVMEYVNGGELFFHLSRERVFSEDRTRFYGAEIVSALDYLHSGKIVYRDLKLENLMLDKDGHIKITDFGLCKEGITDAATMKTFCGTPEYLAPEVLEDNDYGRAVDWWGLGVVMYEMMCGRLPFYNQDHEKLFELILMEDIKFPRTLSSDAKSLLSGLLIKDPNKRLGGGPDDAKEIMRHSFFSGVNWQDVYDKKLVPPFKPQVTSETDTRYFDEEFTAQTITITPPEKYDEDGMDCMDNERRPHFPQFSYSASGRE

MKN-45 [18] = experiment: Induction of apoptosis in human MKN-45 cells assessed as late apoptotic cells at 400 nM incubated for 48 hrs by Annexin V-FITC/PI staining based flow cytometry analysis (reference value: 2.6%); assay type: functional
MKN-45 [19] = experiment: Antiproliferative activity against MYOF knocked down human MKN-45 cells incubated for 48 hrs by SRB assay; assay type: functional, cell-based
MGC-803 [20] = experiment: Antiproliferative activity against human MGC-803 cells incubated for 48 hrs by SRB assay; assay type: functional, cell-based; details: MGC-803, 48 h
Cytochrome P450 2C19 = Cytochrome P450 2C19 (Homo sapiens, UniProt P33261); experiment: Inhibition of CYP2C19 in human liver microsomes; assay type: ADME, Microsome
Chain of Cytochrome P450 2C19 (P33261 whole entry): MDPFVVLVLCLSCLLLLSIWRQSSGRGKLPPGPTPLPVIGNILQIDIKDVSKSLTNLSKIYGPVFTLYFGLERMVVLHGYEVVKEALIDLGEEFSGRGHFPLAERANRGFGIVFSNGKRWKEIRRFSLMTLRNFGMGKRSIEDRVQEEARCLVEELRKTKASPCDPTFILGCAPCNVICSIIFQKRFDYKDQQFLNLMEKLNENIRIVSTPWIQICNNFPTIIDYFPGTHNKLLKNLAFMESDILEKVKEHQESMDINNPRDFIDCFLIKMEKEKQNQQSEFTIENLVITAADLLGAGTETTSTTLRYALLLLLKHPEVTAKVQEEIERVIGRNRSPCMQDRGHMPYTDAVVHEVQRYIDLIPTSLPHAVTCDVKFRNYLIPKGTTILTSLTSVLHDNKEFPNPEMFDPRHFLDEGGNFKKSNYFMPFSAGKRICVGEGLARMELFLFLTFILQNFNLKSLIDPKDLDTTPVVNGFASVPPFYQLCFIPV

MGC-803 [21] = experiment: Antiinvasive activity against human MGC-803 cells incubated for 24 hrs by crystal violet staining based inverted microscopic analysis; assay type: functional, cell-based
[22] = biological target: Voltage-gated inwardly rectifying potassium channel KCNH2 (Homo sapiens, UniProt Q12809); experiment: Inhibition of human ERG; assay type: toxicity
[23] = AUC(0 to t) in ICR mouse at 10 mg/kg, po; assay type: ADME, organism-based; parameters: dose 10 mg/kg, route po; details: in vivo
[24] = Mean residence time in ICR mouse at 10 mg/kg, po; assay type: ADME, organism-based; details: in vivo
[25] = Toxicity in BALB/c mouse assessed as change in kidney morphology at 15 to 30 mg/kg, ip measured every 3 days for 21 days by HE staining based assay; assay type: organism-based; details: in vivo, 504 h, dose 15-30 mg/kg, time 21 day
[26] = Toxicity in BALB/c mouse assessed as change in lung morphology at 15 to 30 mg/kg, ip measured every 3 days for 21 days by HE staining based assay; assay type: organism-based; details: in vivo, 504 h, dose 15-30 mg/kg, time 21 day
[27] = Mean residence time in ICR mouse at 1 mg/kg, iv; assay type: ADME, organism-based; details: in vivo
MKN-45 [28] = experiment: Induction of apoptosis in human MKN-45 cells assessed as late apoptotic cells at 800 nM incubated for 48 hrs by Annexin V-FITC/PI staining based flow cytometry analysis (reference value: 2.6%); assay type: functional
[29] = Oral bioavailability in ICR mouse at 10 mg/kg; assay type: ADME, organism-based; details: in vivo
MKN-45 [30] = experiment: Inhibition of human MKN-45 cells colony formation incubated for 10 days by crystal violet staining based assay; assay type: functional, cell-based; details: dose 50-100 nM, time 10.0 day
Myoferlin [31] = biological target: T1, Myoferlin; experiment: Binding affinity to MYOF C2D (unknown origin) expressed in Escherichia coli BL21(DE3) by SPR analysis
SK-HEP1 = experiment: Antiproliferative activity against human SK-HEP1 cells incubated for 48 hrs by SRB assay; assay type: functional, cell-based; details: SK-HEP1, 48 h
[32] = Cmax in ICR mouse at 10 mg/kg, po; assay type: ADME, organism-based; parameters: dose 10 mg/kg, route po; details: in vivo
[33] = AUC(0 to t) in ICR mouse at 1 mg/kg, iv; assay type: ADME, organism-based; parameters: dose 1 mg/kg, route iv; details: in vivo
CWR22R = experiment: Antiproliferative activity against human 22Rv1 cells incubated for 48 hrs by SRB assay; assay type: functional, cell-based; details: 22Rv1, 48 h
MKN-45 [34] = experiment: Induction of apoptosis in human MKN-45 cells assessed as early apoptotic cells at 100 nM incubated for 48 hrs by Annexin V-FITC/PI staining based flow cytometry analysis (reference value: 0.5%); assay type: functional
[35] = Half life in ICR mouse at 10 mg/kg, po; assay type: ADME, organism-based; details: in vivo

Q: Which inhibition in vivo at 15 mg/kg/day (MKN-45 [1]) does the source give for CCc1nc(-c2ccc(OC)cc2)n(-c2cccc(C(=O)NCCCCn3nccn3)c2)n1 here?
A: The inhibition in vivo at 15 mg/kg/day was 55.1%.

Q: And the IC50 (BGC-823)?
A: The IC50 was 290 nM.

Q: What about the Cmax [2] of the same compound?
A: The Cmax was 1910 ng/mL.

Q: What about the inhibition at 40 µM (hERG (KCNH2)) of the same compound?
A: The inhibition at 40 µM was 46.6%.

Q: And the IC50 (AGS)?
A: The IC50 was 460 nM.

Q: And the Activity (MKN-45 [3])?
A: The Activity was 12.6%.

Q: And the IC50 [4]?
A: Its IC50 is greater than 10000 nM.

Q: And the inhibition (MKN-45 [5])?
A: The inhibition was “Dose-Dependent Effect”.

Q: What about the IC50 (Cytochrome P450 3A4) of the same compound?
A: Its IC50 is 35100 nM.

Q: And the IC50 (DU-145)?
A: Its IC50 is greater than 10000 nM.

Q: And the IC50 (BXPC-3)?
A: Its IC50 is 130 nM.

Q: And the solubility [6]?
A: The solubility was 1310 µM (≈ 582 µg/mL).

Q: And the Activity [7]?
A: The Activity was “Non-Toxic”.

Q: What about the Activity (MKN-45 [8]) of the same compound?
A: Its Activity is 13.4%.

Q: What about the solubility [9] of the same compound?
A: The solubility was 258 µM (≈ 115 µg/mL).

Q: What about the solubility [10] of the same compound?
A: The solubility was 272 µM (≈ 121 µg/mL).

Q: And the Activity (Myoferlin [11])?
A: The Activity was “Active”.

Q: What about the half-life [12] of the same compound?
A: Its half-life is 13.2 min.

Q: What about the IC50 (Cytochrome P450 2D6) of the same compound?
A: The IC50 was greater than 50000 nM.

Q: And the IC50 (ES-2)?
A: Its IC50 is 280 nM.

Q: What about the Activity (MKN-45 [13]) of the same compound?
A: The Activity was 4.7%.

Q: And the clearance [14]?
A: Its clearance is 22 mL/min/kg.

Q: What about the IC50 (MFC) of the same compound?
A: The IC50 was greater than 10000 nM.

Q: What about the inhibition (MKN-45 [15]) of the same compound?
A: Its inhibition is “Dose-Dependent Effect”.

Q: And the Activity [16]?
A: The Activity was “Non-Toxic”.

Q: What about the inhibition [17] of the same compound?
A: Its inhibition is “Active”.

Q: What about the Activity (MKN-45 [18]) of the same compound?
A: Its Activity is 37.6%.

Q: What about the Activity (MKN-45 [19]) of the same compound?
A: The Activity was “inactive”.

Q: What about the IC50 (MGC-803 [20]) of the same compound?
A: The IC50 was 160 nM.

Q: What about the IC50 (Cytochrome P450 2C19) of the same compound?
A: The IC50 was 18800 nM.

Q: What about the Activity (MGC-803 [21]) of the same compound?
A: Its Activity is “Dose-Dependent Effect”.

Q: What about the IC50 (MGC-803 [21]; MGC-803, 24 h) of the same compound?
A: Its IC50 is 60 nM.

Q: What about the IC50 [22] of the same compound?
A: The IC50 was greater than 40000 nM.

Q: What about the AUC(0-t) [23] of the same compound?
A: Its AUC(0-t) is 4920 ng·h/mL.

Q: What about the MRT [24] of the same compound?
A: Its MRT is 40.3 min.

Q: And the Activity [25]?
A: Its Activity is “Non-Toxic”.

Q: And the Activity [26]?
A: Its Activity is “Non-Toxic”.

Q: And the MRT [27]?
A: Its MRT is 17.2 min.

Q: And the Activity (MKN-45 [28])?
A: Its Activity is 40.6%.

Q: And the bioavailability [29]?
A: Its bioavailability is 65.5%.

Q: What about the inhibition (MKN-45 [30]) of the same compound?
A: Its inhibition is “Dose-Dependent Effect”.

Q: And the Kd (Myoferlin [31])?
A: The Kd was 170 nM.

Q: What about the IC50 (SK-HEP1) of the same compound?
A: The IC50 was 750 nM.

Q: And the Cmax [32]?
A: Its Cmax is 5820 ng/mL.

Q: What about the AUC(0-t) [33] of the same compound?
A: Its AUC(0-t) is 751 ng·h/mL.

Q: What about the IC50 (CWR22R) of the same compound?
A: The IC50 was greater than 10000 nM.

Q: What about the Activity (MKN-45 [34]) of the same compound?
A: The Activity was 0.6%.

Q: What about the half-life [35] of the same compound?
A: Its half-life is 38.4 min.
